Results from patent publication US20180284095A1, “BIOMARKERS ASSOCIATED WITH LSD1 INHIBITORS AND USES THEREOF” (Oryzon Genomics, S.A., priority 2015, published 2018).

Columns and labels:
[1] = tested on: S100A9; experiment: Microarray gene expression in brain, spleen and liver of Hsd:Athymic Nude-Foxn1nu mice (Example 7); type: in vivo, mouse
Description: (§1) Total RNA was extracted from samples using the RNeasy extraction kit (Qiagen). The quality and concentration of the RNA was analyzed using the Agilent 2100 bioanalyzer and NanoDrop™ ND-1000 (Thermo Scientific). Samples with RNA integrity number (RIN)<6.0 were discarded. Total RNA (0.5 μg) amplification and labelling with Cy3 or Cy5 was carried out using the Eberwein mRNA amplification procedure (Van Gelder et al, Proc Natl Acad Sci USA 1990, 87:1663-1667) employing the MessageAmp™ aRNA amplification kit from Ambion (Applied Biosystems) following the manufacturer's instructions with minor modifications. As hybridization controls, plant mRNAs were transcribed from a plasmid containing the Zea mays Xet (xyloglucan endo-transglycosylase) cDNA and from a plasmid containing the Zea mays Zmmyb42 cDNA, independently prepared Cy3 and Cy5 labelled aRNA from these two RNAs using the Eberwein mRNA amplification procedure (as disclosed in Cerdà et al, Gen Comp Endocrinol 2008, 156:470-481).
(§2) The Cy3- and Cy5-labelled cRNAs and spikes were combined and hybridized to the microarray described in Example 2.6 for 17 h at 60° C. using Agilent's gaskets G2534-60002, G2534A hybridization chambers and DNA Hybridization Oven G2545A, according to the manufacturer's instructions. More specifically, equal amounts of Cy3 and Cy5 labeled Xet aRNA as well as equal amounts of Cy3 and Cy5 labeled Zmmyb42 aRNA were spiked into each mixture hybridized to the array. Arrays were washed and raw data were obtained using Agilent's DNA Microarray Scanner G2505B and Feature Extraction software (v10.1). The raw fluorescence intensity data were processed using applicant's proprietary software, and consists in the following operations:
(§3) Data normalization was carried out by an improved version of the nonlinear Q-splines normalization method (Workman et al., Genome Biol 2002, 3(9):research0048.1-0048.16). Normalization results were presented graphically as MA plots, as first described by Dudoit et al (Dudoit et al, Statistica Sinica, 2002, 12:111-139). Each point corresponds to a probe of the DNA array. M values (vertical axis) are the log-differential expression ratios. A values (horizontal axis) are the log-intensities of the spots. M and A are calculated from the Cy5 and Cy3 intensity values as of each spot. The DNA Array data is normalized using an improved version of non-linear Q-Splines normalization described by Workman et al., Genome Biol 2002, 3(9):research0048.1-0048.16. This process is useful to correct the deviation of the M values from the statistical assumption that most of the spots have M=0 in MA plots. The method allows the adjustment of all M values to form a cloud centered at M=0 in all intensity ranges. The data used to calculate the normalization fitting curve is the totality of the raw measurement dataset, excluding the signals for the probes for the spiked-in plant RNA controls and negative controls. In order to be able to normalize properly the data among all the experiments, the probe-set must include an important group of genes that should have no change (M=0) in the experiment. The normalization function is then applied to all the data, including controls.
(§4) Normalized and log-transformed data were used to calculate log 2 (sample/control) and Fold Change (FC) values. No background subtraction was applied to the signal intensity values during data processing, permitting robust selection of differentially expressed genes with low expression levels at the cost of potential sub-estimation of change when intensity levels are close to the array background level.
(§5) Powered Compound 3, 4 or 5 was dissolved in a 20% solution of 2-hydroxypropyl-R-cyclodextrin in water at the appropriate concentrations, vortexed and placed in an ultrasonic bath for 5 minutes.
(§6) Hsd:Athymic Nude-Foxn1nu mice were maintained in air- and temperature-controlled cages with regular supply of water and food. A maximum of 6 mice/cage were raised. […]

[2] = tested on: S100A8; experiment: as above; type: in vivo, mouse
Description: as §1, §2, §3, §4, §5, §6

[3] = SPLEEN, S100A9, 10 mg/kg vs VEH
[4] = SPLEEN, S100A8, 10 mg/kg vs VEH

NC(=O)CN[C@H]1C[C@@H]1c1ccc(OCc2ccccc2)cc1 (racemic) [Compound 3, 2-(((trans)-2-(4-(benzyloxy)phenyl)cyclopropyl)amino)acetamide]
Hybridization signal sample_Cy5 ([1]; BRAIN, S100A9, 5 mg/kg): 756.846 | log2 (sample/control) ([1]; BRAIN, S100A9, 5 mg/kg vs VEH): 0.1106 | Hybridization signal sample_Cy5 ([1]; BRAIN, S100A9, 10 mg/kg): 465.025 | log2 (sample/control) ([1]; BRAIN, S100A9, 10 mg/kg vs VEH): −0.5589 | Hybridization signal sample_Cy5 ([1]; BRAIN, S100A9, 20 mg/kg): 268.93 | log2 (sample/control) ([1]; BRAIN, S100A9, 20 mg/kg vs VEH): −1.388 | Hybridization signal sample_Cy5 ([1]; BRAIN, S100A9, 40 mg/kg): 208.488 | log2 (sample/control) ([1]; BRAIN, S100A9, 40 mg/kg vs VEH): −1.798 | Hybridization signal sample_Cy5 ([1]; LIVER, S100A9, 5 mg/kg): 820.026 | log2 (sample/control) ([1]; LIVER, S100A9, 5 mg/kg vs VEH): −1.469 | Hybridization signal sample_Cy5 ([1]; LIVER, S100A9, 10 mg/kg): 841.06 | log2 (sample/control) ([1]; LIVER, S100A9, 10 mg/kg vs VEH): −1.41 | Hybridization signal sample_Cy5 ([1]; LIVER, S100A9, 20 mg/kg): 862.896 | log2 (sample/control) ([1]; LIVER, S100A9, 20 mg/kg vs VEH): −1.44 | Hybridization signal sample_Cy5 ([1]; LIVER, S100A9, 40 mg/kg): 412.209 | log2 (sample/control) ([1]; LIVER, S100A9, 40 mg/kg vs VEH): −2.571 | Hybridization signal sample_Cy5 ([1]; SPLEEN, S100A9, 5 mg/kg): 10802.4 | log2 (sample/control) ([1]; SPLEEN, S100A9, 5 mg/kg vs VEH): −1.213 | Hybridization signal sample_Cy5 ([1]; SPLEEN, S100A9, 10 mg/kg): 15182.8 | log2 (sample/control) [1, 3]: −0.5812 | Hybridization signal sample_Cy5 ([1]; SPLEEN, S100A9, 20 mg/kg): 15717.4 | log2 (sample/control) ([1]; SPLEEN, S100A9, 20 mg/kg vs VEH): −0.5179 | Hybridization signal sample_Cy5 ([1]; SPLEEN, S100A9, 40 mg/kg): 13461.8 | log2 (sample/control) ([1]; SPLEEN, S100A9, 40 mg/kg vs VEH): −1.719 | Hybridization signal sample_Cy5 ([2]; BRAIN, S100A8, 5 mg/kg): 229.714 | log2 (sample/control) ([2]; BRAIN, S100A8, 5 mg/kg vs VEH): −0.116 | Hybridization signal sample_Cy5 ([2]; BRAIN, S100A8, 10 mg/kg): 185.235 | log2 (sample/control) ([2]; BRAIN, S100A8, 10 mg/kg vs VEH): −0.3304 | Hybridization signal sample_Cy5 ([2]; BRAIN, S100A8, 20 mg/kg): 108.854 | log2 (sample/control) ([2]; BRAIN, S100A8, 20 mg/kg vs VEH): −1.218 | Hybridization signal sample_Cy5 ([2]; BRAIN, S100A8, 40 mg/kg): 89.5415 | log2 (sample/control) ([2]; BRAIN, S100A8, 40 mg/kg vs VEH): −1.598 | Hybridization signal sample_Cy5 ([2]; LIVER, S100A8, 5 mg/kg): 250.202 | log2 (sample/control) ([2]; LIVER, S100A8, 5 mg/kg vs VEH): −1.371 | Hybridization signal sample_Cy5 ([2]; LIVER, S100A8, 10 mg/kg): 280.387 | log2 (sample/control) ([2]; LIVER, S100A8, 10 mg/kg vs VEH): −1.1185 | Hybridization signal sample_Cy5 ([2]; LIVER, S100A8, 20 mg/kg): 266.01 | log2 (sample/control) ([2]; LIVER, S100A8, 20 mg/kg vs VEH): −1.318 | Hybridization signal sample_Cy5 ([2]; LIVER, S100A8, 40 mg/kg): 161.23 | log2 (sample/control) ([2]; LIVER, S100A8, 40 mg/kg vs VEH): −2.177 | Hybridization signal sample_Cy5 ([2]; SPLEEN, S100A8, 5 mg/kg): 4533.52 | log2 (sample/control) ([2]; SPLEEN, S100A8, 5 mg/kg vs VEH): −1.181 | Hybridization signal sample_Cy5 ([2]; SPLEEN, S100A8, 10 mg/kg): 6342.81 | log2 (sample/control) [2, 4]: −0.4706 | Hybridization signal sample_Cy5 ([2]; SPLEEN, S100A8, 20 mg/kg): 7014.94 | log2 (sample/control) ([2]; SPLEEN, S100A8, 20 mg/kg vs VEH): −0.5296 | Hybridization signal sample_Cy5 ([2]; SPLEEN, S100A8, 40 mg/kg): 4802.3 | log2 (sample/control) ([2]; SPLEEN, S100A8, 40 mg/kg vs VEH): −1.65

CN1CCN(C(=O)CN[C@H]2C[C@@H]2c2ccc(OCc3ccccc3)cc2)CC1 (racemic) [Compound 4, 2-(((trans)-2-(4-(benzyloxy)phenyl)cyclopropyl)amino)-1-(4-methylpiperazin-1-yl)ethan-1-one]
Hybridization signal sample_Cy5 ([1]; BRAIN, S100A9, 1 mg/kg): 306.245 | log2 (sample/control) ([1]; BRAIN, S100A9, 1 mg/kg vs VEH): −2.143 | Hybridization signal sample_Cy5 ([1]; BRAIN, S100A9, 3 mg/kg): 132.716 | log2 (sample/control) ([1]; BRAIN, S100A9, 3 mg/kg vs VEH): −3.286 | Hybridization signal sample_Cy5 ([1]; BRAIN, S100A9, 10 mg/kg): 78.7372 | log2 (sample/control) ([1]; BRAIN, S100A9, 10 mg/kg vs VEH): −4.222 | Hybridization signal sample_Cy5 ([1]; LIVER, S100A9, 1 mg/kg): 666.426 | log2 (sample/control) ([1]; LIVER, S100A9, 1 mg/kg vs VEH): −1.192 | Hybridization signal sample_Cy5 ([1]; LIVER, S100A9, 3 mg/kg): 490.218 | log2 (sample/control) ([1]; LIVER, S100A9, 3 mg/kg vs VEH): −1.632 | Hybridization signal sample_Cy5 ([1]; LIVER, S100A9, 10 mg/kg): 386.758 | log2 (sample/control) ([1]; LIVER, S100A9, 10 mg/kg vs VEH): −1.928 | Hybridization signal sample_Cy5 ([1]; SPLEEN, S100A9, 1 mg/kg): 13748.6 | log2 (sample/control) ([1]; SPLEEN, S100A9, 1 mg/kg vs VEH): −1.579 | Hybridization signal sample_Cy5 ([1]; SPLEEN, S100A9, 3 mg/kg): 3824.62 | log2 (sample/control) ([1]; SPLEEN, S100A9, 3 mg/kg vs VEH): −3.541 | Hybridization signal sample_Cy5 ([1]; SPLEEN, S100A9, 10 mg/kg): 2502.64 | log2 (sample/control) [1, 3]: −4.161 | Hybridization signal sample_Cy5 ([2]; BRAIN, S100A8, 1 mg/kg): 106.74 | log2 (sample/control) ([2]; BRAIN, S100A8, 1 mg/kg vs VEH): −1.761 | Hybridization signal sample_Cy5 ([2]; BRAIN, S100A8, 3 mg/kg): 65.756 | log2 (sample/control) ([2]; BRAIN, S100A8, 3 mg/kg vs VEH): −2.35 | Hybridization signal sample_Cy5 ([2]; BRAIN, S100A8, 10 mg/kg): 46.781 | log2 (sample/control) ([2]; BRAIN, S100A8, 10 mg/kg vs VEH): −3.042 | Hybridization signal sample_Cy5 ([2]; LIVER, S100A8, 1 mg/kg): 220.788 | log2 (sample/control) ([2]; LIVER, S100A8, 1 mg/kg vs VEH): −0.8718 | Hybridization signal sample_Cy5 ([2]; LIVER, S100A8, 3 mg/kg): 211.114 | log2 (sample/control) ([2]; LIVER, S100A8, 3 mg/kg vs VEH): −1.181 | Hybridization signal sample_Cy5 ([2]; LIVER, S100A8, 10 mg/kg): 172.461 | log2 (sample/control) ([2]; LIVER, S100A8, 10 mg/kg vs VEH): −1.335 | Hybridization signal sample_Cy5 ([2]; SPLEEN, S100A8, 1 mg/kg): 6016.2 | log2 (sample/control) ([2]; SPLEEN, S100A8, 1 mg/kg vs VEH): −1.312 | Hybridization signal sample_Cy5 ([2]; SPLEEN, S100A8, 3 mg/kg): 1854.43 | log2 (sample/control) ([2]; SPLEEN, S100A8, 3 mg/kg vs VEH): −3.148 | Hybridization signal sample_Cy5 ([2]; SPLEEN, S100A8, 10 mg/kg): 1214.31 | log2 (sample/control) [2, 4]: −3.587
